Measurements taken from patent US20190276871A1, “Antimicrobial Cartridges and Processes for Antimicrobial Susceptibility Testing” (SeLux Diagnostics, Inc., priority 2017, published 2019).
Converted amounts (≈) assume the structure as drawn. Read-outs that look alike come from different tables or passages of the source.

Tests used:
[1] = MIC, antimicrobial panel 1; cited from earlier work
patient sample microbes [2] = assay: Standard 96-well AST assay plate, antimicrobial panel 1; assay type: cell-based
From the text: (§1) Shown in Table 5 and Table 6, MIC results for antimicrobial panels 1 and 2 respectively using a master cartridge format and a 384 well patient cartridge (column 3) agrees reliably with that run by standard 96 well AST assay plate (right hand column).

patient sample microbes [3] = assay: AST on 384-well patient cartridge panel made from Master Plate, antimicrobial panel 1; assay type: cell-based; conditions: master cartridge format
From the text: (§2) An assay setup comprises preparation of patient (target) cartridge by dispensing antimicrobials were from the master cartridge or intermediate serial dilution cartridges into one or more 384 reservoir patient cartridge, each antimicrobial in about 7 serial dilutions in triplicate, and covering the dynamic range of each antimicrobial that is known to be effective and therefore should be reported. The dilution range included the expected minimum inhibitory concentration (MIC) for each antimicrobial. But most importantly, dilution ranges, that is, antimicrobial concentrations beyond the range known to be effective are included in the patient cartridge as per the present invention.
(§3) The remaining reservoirs of the 384 well patient cartridge are utilized for setting up test controls: a no-antimicrobial control (negative control) was included for each antimicrobial compound; and a positive control was included for each antimicrobial set, where a microorganism that is not susceptible to the antimicrobial was added to the well. Each control set was also dispensed at least in duplicate per 384 well cartridge. Additional test controls may be included as deemed necessary by one of skill in the art. Equal amount of a patient sample was dispensed to each of the wells in the cartridge, except in the wells designated for no-sample control, if included. The patient cartridge was ready for determination of susceptibility of microbes from the patient sample to the twelve antimicrobials at the range of concentrations applied, simultaneously. Multiple such plates can be set up in parallel for testing samples from multiple patients, each patient sample per plate. An AST assay was performed on the prepared patient cartridges.
as §1

patient sample microbes [4] = assay: Standard 96-well AST assay plate, antimicrobial panel 2; assay type: cell-based; set-up: unit not given here
From the text: as §1

patient sample microbes [5] = assay: AST on 384-well patient cartridge panel made from Master Plate, antimicrobial panel 2; assay type: cell-based; set-up: unit not given here; conditions: master cartridge format
From the text: as §2, §3, §1

[6] = MIC, antimicrobial panel 2; cited from earlier work
[7] = system: clinical isolate of S aureus; assay: Broth microdilution reference method; assay type: cell-based; conditions: read-out: MICs obtained from the broth microdilution reference method
Description: The antibiotics shown are vancomycin, daptomycin, ceftaroline and levofloxacin, of which the MICs obtained from the broth microdilution reference method for this strain were 0.5, 0.25, 0.12, and 0.25 μg/ml, respectively. A clinical isolate of S aureus was used. Data represents the TRF signal in RFUs. Graphs in the top row contain data from 384-well plates. Graphs in the bottom row contain data from 96-well plates.

NCC[C@H](O)C(=O)N[C@@H]1C[C@H](N)[C@@H](O[C@H]2O[C@H](CN)[C@@H](O)[C@H](O)[C@H]2O)[C@H](O)[C@H]1O[C@H]1O[C@H](CO)[C@@H](O)[C@H](N)[C@H]1O [Amikacin]
Quality Control Range [1]: 0.5-4
MICs obtained from 96-well Antibiotic Panel (patient sample microbes [2]): 4
MICs obtained from panel made from Master Plate (patient sample microbes [3]): 4

CC1(C)S[C@@H]2[C@H](NC(=O)[C@H](N)c3ccccc3)C(=O)N2[C@H]1C(=O)O [Ampicillin]
Quality Control Range [1]: 2-8
MICs obtained from 96-well Antibiotic Panel (patient sample microbes [2]): 8
MICs obtained from 96-well Antibiotic Panel (patient sample microbes [4]): 1
MICs obtained from panel made from Master Plate (patient sample microbes [5]): 1
Quality Control Range [6]: 0.5-2
MICs obtained from panel made from Master Plate (patient sample microbes [3]): 4

CO/N=C(\C(=O)N[C@@H]1C(=O)N2C(C(=O)[O-])=C(C[N+]3(C)CCCC3)CS[C@H]12)c1csc(N)n1 [Cefepime]
Quality Control Range [1]: 0.015-0.12
MICs obtained from 96-well Antibiotic Panel (patient sample microbes [2]): ≤0.03
MICs obtained from panel made from Master Plate (patient sample microbes [3]): ≤0.25

CCO/N=C(\C(=O)N[C@@H]1C(=O)N2C(C(=O)[O-])=C(Sc3nc(-c4cc[n+](C)cc4)cs3)CS[C@H]12)c1nsc(N)n1 [Ceftaroline]
MICs obtained from 96-well Antibiotic Panel (patient sample microbes [4]): 0.25
MIC ([7]; clinical isolate of S aureus): 0.12 mg/L (≈ 0.198 µM)
MICs obtained from panel made from Master Plate (patient sample microbes [5]): 0.5

CC(C)(O/N=C(\C(=O)N[C@@H]1C(=O)N2C(C(=O)[O-])=C(C[n+]3ccccc3)CS[C@H]12)c1csc(N)n1)C(=O)O [Ceftazidime]
Quality Control Range [1]: 0.06-0.5
MICs obtained from 96-well Antibiotic Panel (patient sample microbes [2]): 0.25
MICs obtained from 96-well Antibiotic Panel (patient sample microbes [4]): 8
MICs obtained from panel made from Master Plate (patient sample microbes [5]): 4
Quality Control Range [6]: 4-16
MICs obtained from panel made from Master Plate (patient sample microbes [3]): <1

CO/N=C(\C(=O)N[C@@H]1C(=O)N2C(C(=O)O)=C(CSc3nc(=O)c(=O)[nH]n3C)CS[C@H]12)c1csc(N)n1 [Ceftriaxone]
Quality Control Range [1]: 0.03-0.12
MICs obtained from 96-well Antibiotic Panel (patient sample microbes [2]): ≤0.12
MICs obtained from 96-well Antibiotic Panel (patient sample microbes [4]): 4
MICs obtained from panel made from Master Plate (patient sample microbes [5]): 2
Quality Control Range [6]: 1-8
MICs obtained from panel made from Master Plate (patient sample microbes [3]): ≤0.125

C[C@H]1COc2c(N3CCN(C)CC3)c(F)cc3c(=O)c(C(=O)O)cn1c23 [Levofloxacin]
MICs obtained from 96-well Antibiotic Panel (patient sample microbes [2]): ≤0.06
MICs obtained from 96-well Antibiotic Panel (patient sample microbes [4]): 0.25
MIC ([7]; clinical isolate of S aureus): 0.25 mg/L (≈ 0.692 µM)
MICs obtained from panel made from Master Plate (patient sample microbes [5]): ≤0.25
MICs obtained from panel made from Master Plate (patient sample microbes [3]): ≤0.25

CC(=O)NC[C@H]1CN(c2ccc(N3CCOCC3)c(F)c2)C(=O)O1 [Linezolid]
MICs obtained from 96-well Antibiotic Panel (patient sample microbes [4]): 2
MICs obtained from panel made from Master Plate (patient sample microbes [5]): 2
Quality Control Range [6]: 1-4

Cc1onc(-c2ccccc2)c1C(=O)N[C@@H]1C(=O)N2[C@@H]1SC(C)(C)[C@@H]2C(=O)O [Oxacillin]
MICs obtained from 96-well Antibiotic Panel (patient sample microbes [4]): 0.5
MICs obtained from panel made from Master Plate (patient sample microbes [5]): 0.5
Quality Control Range [6]: 0.12-0.5

CO[C@H]1/C=C/O[C@@]2(C)Oc3c(C)c(O)c4c(O)c(c(/C=N/N5CCN(C)CC5)c(O)c4c3C2=O)NC(=O)/C(C)=C\C=C\[C@H](C)[C@H](O)[C@@H](C)[C@@H](O)[C@@H](C)[C@H](OC(C)=O)[C@@H]1C [Rifampin]
MICs obtained from 96-well Antibiotic Panel (patient sample microbes [4]): 0.004
MICs obtained from panel made from Master Plate (patient sample microbes [5]): ≤0.25
Quality Control Range [6]: 0.004-0.015

Cn1nnc(-c2ccc(-c3ccc(N4C[C@H](CO)OC4=O)cc3F)cn2)n1 [Tedizolid]
MICs obtained from 96-well Antibiotic Panel (patient sample microbes [4]): 0.5
MICs obtained from panel made from Master Plate (patient sample microbes [5]): 0.25
Quality Control Range [6]: 0.25-1

NC[C@H]1O[C@H](O[C@H]2[C@H](O)[C@@H](O[C@H]3O[C@H](CO)[C@@H](O)[C@H](N)[C@H]3O)[C@H](N)C[C@@H]2N)[C@H](N)C[C@@H]1O [Tobramycin]
Quality Control Range [1]: 0.25-1
MICs obtained from 96-well Antibiotic Panel (patient sample microbes [2]): 1
MICs obtained from panel made from Master Plate (patient sample microbes [3]): 0.5

CCCCCCCCCC(=O)N[C@@H](Cc1c[nH]c2ccccc12)C(=O)N[C@H](CC(N)=O)C(=O)N[C@@H](CC(=O)O)C(=O)N[C@@H]1C(=O)NCC(=O)N[C@@H](CCCN)C(=O)N[C@@H](CC(=O)O)C(=O)N[C@H](C)C(=O)N[C@@H](CC(=O)O)C(=O)NCC(=O)N[C@H](CO)C(=O)N[C@@H]([C@H](C)CC(=O)O)C(=O)N[C@@H](CC(=O)c2ccccc2N)C(=O)O[C@@H]1C [daptomycin]
MIC ([7]; clinical isolate of S aureus): 0.25 mg/L (≈ 0.154 µM)

CN[C@H](CC(C)C)C(=O)N[C@H]1C(=O)N[C@@H](CC(N)=O)C(=O)N[C@H]2C(=O)N[C@H]3C(=O)N[C@H](C(=O)N[C@H](C(=O)O)c4cc(O)cc(O)c4-c4cc3ccc4O)[C@H](O)c3ccc(c(Cl)c3)Oc3cc2cc(c3O[C@@H]2O[C@H](CO)[C@@H](O)[C@H](O)[C@H]2O[C@H]2C[C@](C)(N)[C@H](O)[C@H](C)O2)Oc2ccc(cc2Cl)[C@H]1O [vancomycin]
MIC [7]: 0.5 mg/L (≈ 0.345 µM)

Ampicillin-Sulbactam
Quality Control Range [1]: 2-8
MICs obtained from 96-well Antibiotic Panel (patient sample microbes [2]): 8 µg/mL
MICs obtained from panel made from Master Plate (patient sample microbes [3]): 8 µg/mL

Piperacillin-tazobactam
Quality Control Range [1]: 1-4
MICs obtained from 96-well Antibiotic Panel (patient sample microbes [2]): 4 µg/mL
MICs obtained from panel made from Master Plate (patient sample microbes [3]): ≤ 1 µg/mL
